Test results taken from patent publication US7368578B2, “Five-membered heterocyclic compounds” (Takeda Pharmaceutical Company Limited, priority 2002, dated 2008).

SMILES | melting point
COc1cc(COc2nn(-c3ccccc3)cc2/C=C/c2nc(C)cs2)ccc1OCc1nc(-c2ccco2)oc1C [Example 185, 2-(2-furyl)-4-({2-methoxy-4-[({4-[(E)-2-(4-methyl-1,3-thiazol-2-yl)ethenyl]-1-phenyl-1H-pyrazol-3-yl}oxy)methyl]phenoxy}methyl)-5-methyl-1,3-oxazole] | 130 to 131 °C
CCOC(=O)c1csc(/C=C/c2cn(-c3ccccc3)nc2OCc2ccc(OCc3nc(-c4ccco4)oc3C)c(OC)c2)n1 [Example 186, ethyl 2-((E)-2-{3-[(4-{[2-(2-furyl)-5-methyl-1,3-oxazol-4-yl]methoxy}-3-methoxybenzyl)oxy]-1-phenyl-1H-pyrazol-4-yl}ethenyl)-1,3-thiazole-4-carboxylate] | 156 to 157 °C
COc1cc(COc2nn(-c3ccccc3)cc2/C=C/c2nc(C(=O)O)cs2)ccc1OCc1nc(-c2ccco2)oc1C [Example 187, 2-((E)-2-{3-[(4-{[2-(2-furyl)-5-methyl-1,3-oxazol-4-yl]methoxy}-3-methoxybenzyl)oxy]-1-phenyl-1H-pyrazol-4-yl}ethenyl)-1,3-thiazole-4-carboxylic acid] | 170 to 172 °C
COc1cc(COc2nn(-c3ccccc3)cc2/C=C/c2nnc(C)[nH]2)ccc1OCc1nc(-c2ccco2)oc1C [Example 188, 3-((E)-2-{3-[(4-{[2-(2-furyl)-5-methyl-1,3-oxazol-4-yl]methoxy}-3-methoxybenzyl)oxy]-1-phenyl-1H-pyrazol-4-yl}ethenyl)-5-methyl-4H-1,2,4-triazole] | 165 to 166 °C
COc1cc(COc2nn(-c3ccccc3)cc2/C=C/C(=O)NNC(C)=O)ccc1OCc1nc(-c2ccco2)oc1C [Example 189, (2E)-N′-acetyl-3-{3-[(4-{[2-(2-furyl)-5-methyl-1,3-oxazol-4-yl]methoxy}-3-methoxybenzyl)oxy]-1-phenyl-1H-pyrazol-4-yl}-2-propenohydrazide] | 221 to 222 °C
CCc1nc(/C=C\c2cn(-c3ccccc3)nc2OCc2ccc(OCc3csc(N4CCCCC4)n3)c(OC)c2)cs1 [Example 193 (Z form), 1-[4-({4-[({4-[(Z)-2-(2-ethyl-1,3-thiazol-4-yl)ethenyl]-1-phenyl-1H-pyrazol-3-yl}oxy)methyl]-2-methoxyphenoxy}methyl)-1,3-thiazol-2-yl]piperidine] | 93 to 94 °C
COc1cc(COc2nn(-c3ccccc3)cc2C=O)ccc1OCc1csc(N2CCCCC2)n1 [Example 196, 3-({3-methoxy-4-[(2-piperidin-1-yl-1,3-thiazol-4-yl)methoxy]benzyl}oxy)-1-phenyl-1H-pyrazole-4-carbaldehyde] | 123 to 124 °C
COc1cc(COc2nn(-c3ccccc3)cc2C=O)ccc1OCc1csc(N2CCOCC2)n1 [Example 197, 3-({3-methoxy-4-[(2-morpholin-4-yl-1,3-thiazol-4-yl)methoxy]benzyl}oxy)-1-phenyl-1H-pyrazole-4-carbaldehyde] | 128 to 129 °C
COc1cc(COc2nn(-c3ccccc3)cc2C=O)ccc1OCc1nc(N2CCCCC2)sc1C [Example 198, 3-({3-methoxy-4-[(5-methyl-2-piperidin-1-yl-1,3-thiazol-4-yl)methoxy]benzyl}oxy)-1-phenyl-1H-pyrazole-4-carbaldehyde] | 180 to 181 °C
CCOC(=O)c1cn(Cc2cccnc2)nc1OCc1ccc(OCc2nc(-c3ccco3)oc2C)c(OC)c1 [Example 199, ethyl 3-[(4-{[2-(2-furyl)-5-methyl-1,3-oxazol-4-yl]methoxy}-3-methoxybenzyl)oxy]-1-(pyridin-3-ylmethyl)-1H-pyrazole-4-carboxylate] | 131 to 132 °C
COc1cc(COc2nn(Cc3cccnc3)cc2CO)ccc1OCc1nc(-c2ccco2)oc1C [Example 200, [3-[(4-{[2-(2-furyl)-5-methyl-1,3-oxazol-4-yl]methoxy}-3-methoxybenzyl)oxy]-1-(pyridin-3-ylmethyl)-1H-pyrazol-4-yl]methanol] | 90 to 91 °C
COC(=O)c1ccccc1-c1nc(COc2ccc(COc3nn(-c4ccccc4)cc3C=O)cc2OC)c(C)o1 [Example 207, methyl 2-{4-[(4-{[(4-formyl-1-phenyl-1H-pyrazol-3-yl)oxy]methyl}-2-methoxyphenoxy)methyl]-5-methyl-1,3-oxazol-2-yl}benzoate] | 134 to 135 °C
COC(=O)c1cccc(-c2nc(COc3ccc(CON4CC(C=O)=CN4c4ccccc4)cc3OC)c(C)o2)c1 [Example 208, methyl 3-{4-[(4-{[(4-formyl-1-phenyl-1H-pyrazol-2-yl)oxy]methyl}-2-methoxyphenoxy)methyl]-5-methyl-1,3-oxazol-2-yl}benzoate] | 164 to 165 °C
COC(=O)c1ccc(-c2nc(COc3ccc(COc4nn(-c5ccccc5)cc4C=O)cc3OC)c(C)o2)cc1 [Example 209, methyl 4-{4-[(4-{[(4-formyl-1-phenyl-1H-pyrazol-3-yl)oxy]methyl}-2-methoxyphenoxy)methyl]-5-methyl-1,3-oxazol-2-yl}benzoate] | 190 to 191 °C
COc1cc(COc2nn(-c3ccccc3)cc2C=O)ccc1OCc1nc(-c2ccccc2)sc1C [Example 213, 3-({3-methoxy-4-[(5-methyl-2-phenyl-1,3-thiazol-4-yl)methoxy]benzyl}oxy)-1-phenyl-1H-pyrazole-4-carbaldehyde] | 164 to 165 °C
COc1cc(COc2nn(-c3ccccc3)cc2C=O)ccc1OCc1coc(-c2ccco2)n1 [Example 218, 3-[(4-{[2-(2-furyl)-1,3-oxazol-4-yl]methoxy}-3-methoxybenzyl)oxy]-1-phenyl-1H-pyrazole-4-carbaldehyde] | 162 to 163 °C
COc1cc(COc2nn(-c3ccccc3)cc2C=O)ccc1OCc1sc(-c2ccccc2)nc1C [Example 219, 3-({3-methoxy-4-[(4-methyl-2-phenyl-1,3-thiazol-5-yl)methoxy]benzyl}oxy)-1-phenyl-1H-pyrazole-4-carbaldehyde] | 171 to 172 °C
COc1cc(COc2nn(-c3ccccc3)cc2C=O)ccc1OCc1cn(-c2ccccn2)nc1C [Example 220, 3-({3-methoxy-4-[(3-methyl-1-pyridin-2-yl-1H-pyrazol-4-yl)methoxy]benzyl}oxy)-1-phenyl-1H-pyrazole-4-carbaldehyde] | 179 to 180 °C
COc1cc(COc2nn(-c3ccccc3)cc2C=O)ccc1OCc1nc(-c2ccccc2)cn1C [Example 221, 3-({3-methoxy-4-[(1-methyl-4-phenyl-1H-imidazol-2-yl)methoxy]benzyl}oxy)-1-phenyl-1H-pyrazole-4-carbaldehyde] | 126 to 127 °C
CCc1nc(/C=C/c2cn(-c3ccccc3)nc2OCc2ccc(OCc3nc(-c4cccc(C(=O)OC)c4)oc3C)c(OC)c2)cs1 [Example 225 (E form), methyl 3-[4-({4-[({4-[(E)-2-(2-ethyl-1,3-thiazol-4-yl)ethenyl]-1-phenyl-1H-pyrazol-3-yl}oxy)methyl]-2-methoxyphenoxy}methyl)-5-methyl-1,3-oxazol-2-yl]benzoate] | 132 to 133 °C
CCc1nc(/C=C\c2cn(-c3ccccc3)nc2OCc2ccc(OCc3nc(-c4cccc(C(=O)OC)c4)oc3C)c(OC)c2)cs1 [Example 225 (Z form), methyl 3-[4-({4-[({4-[(Z)-2-(2-ethyl-1,3-thiazol-4-yl)ethenyl]-1-phenyl-1H-pyrazol-3-yl}oxy)methyl]-2-methoxyphenoxy}methyl)-5-methyl-1,3-oxazol-2-yl]benzoate] | 125 to 126 °C
COc1cc(COc2nn(-c3ccccc3)cc2C=O)ccc1OCc1nc(-c2cccnc2)oc1C [Example 227, 3-({3-methoxy-4-[(5-methyl-2-pyridin-3-yl-1,3-oxazol-4-yl)methoxy]benzyl}oxy)-1-phenyl-1H-pyrazole-4-carbaldehyde] | 161 to 162 °C
CCc1nc(/C=C/c2cn(-c3ccccc3)nc2OCc2ccc(OCc3nc(N4CCOCC4)sc3C)c(OC)c2)cs1 [Example 232 (E form), 4-[4-({4-[({4-[(E)-2-(2-ethyl-1,3-thiazol-4-yl)ethenyl]-1-phenyl-1H-pyrazol-3-yl}oxy)methyl]-2-methoxyphenoxy}methyl)-5-methyl-1,3-thiazol-2-yl]morpholine] | 76 to 78 °C
CCc1nc(/C=C\c2cn(-c3ccccc3)nc2OCc2ccc(OCc3nc(N4CCOCC4)sc3C)c(OC)c2)cs1 [Example 232 (Z form), 4-[4-({4-[({4-[(Z)-2-(2-ethyl-1,3-thiazol-4-yl)ethenyl]-1-phenyl-1H-pyrazol-3-yl}oxy)methyl]-2-methoxyphenoxy}methyl)-5-methyl-1,3-thiazol-2-yl]morpholine] | 112 to 114 °C
Cc1oc(-c2ccccc2)nc1COc1ccc(C(=O)Nc2nn(-c3ccccc3)cc2C=O)cc1 [Example 233, N-(4-formyl-1-phenyl-1H-pyrazol-3-yl)-4-[(5-methyl-2-phenyl-1,3-oxazol-4-yl)methoxy]benzamide] | 185 to 186 °C
COc1cc(COc2nn(-c3ccccc3)cc2C=O)ccc1OCc1nc(-c2cccc(O)c2)oc1C [Example 234, 3-[(4-{[2-(3-hydroxyphenyl)-5-methyl-1,3-oxazol-4-yl]methoxy}-3-methoxybenzyl)oxy]-1-phenyl-1H-pyrazole-4-carbaldehyde] | 193 to 194 °C
COC(=O)COc1cccc(-c2nc(COc3ccc(COc4nn(-c5ccccc5)cc4C=O)cc3OC)c(C)o2)c1 [Example 235, methyl (3-{4-[(4-{[(4-formyl-1-phenyl-1H-pyrazol-3-yl)oxy]methyl}-2-methoxyphenoxy)methyl]-5-methyl-1,3-oxazol-2-yl}phenoxy)acetate] | 107 to 109 °C
COC(=O)c1cccc(-c2nc(COc3ccc(COc4nn(-c5ccccc5)cc4C=O)cc3)c(C)o2)c1 [Example 237, methyl 3-{4-[(4-{[(4-formyl-1-phenyl-1H-pyrazol-3-yl)oxy]methyl}phenoxy)methyl]-5-methyl-1,3-oxazol-2-yl}benzoate] | 161 to 162 °C
COc1cc(COc2nn(-c3ccccc3)cc2C=O)ccc1OCc1nc(N2CCOCC2)sc1C [Example 238, 3-({3-methoxy-4-[(5-methyl-2-morpholin-4-yl-1,3-thiazol-4-yl)methoxy]benzyl}oxy)-1-phenyl-1H-pyrazole-4-carbaldehyde] | 149 to 150 °C
